Patent US20250051275A1, “PYRROLE DERIVATIVE OR PHARMACEUTICALLY OR SITOLOGICALLY ACCEPTABLE SALTS THEREOF, AND COMPOSITION FOR PREVENTION, AMELIORATION OR TREATMENT OF GASTROINTESTINAL DISORDERS COMPRISING SAME AS ACTIVE INGREDIENT” (HANA PHARM CO., LTD., priority 2021, published 2025)
Where two headings read alike, the source gives them in different places.

Key:
[1] = Storage stability (related substance identification test); type: physicochemical; settings: for storage stability: stored at −2 to 8° C., in % (unit assumed)
Excerpt: An attempt was made to evaluate the storage stability over time of the compound of Example 7 of the present invention and the compound of Comparative Example 1 (which is the deuterium-unsubstituted form of the compound of Example 7) depending on the presence of deuterium substitution.

[2] = Pharmacokinetics in rats according to deuterium substitution; type: in vivo; settings: male rats, oral 10 mg/kg; for concentration at 0.5 h / concentration at 1 h / concentration at 2 h / concentration at 5 h / concentration at 8 h: Sprague-Dawley, rat, plasma, read-out: Blood concentration; for concentration at 0.5 h: 0.5 hr after administration; for concentration at 1 h: 1 hr after administration; for concentration at 2 h: 2 hr after administration; for concentration at 5 h: 5 hr after administration; for concentration at 8 h: 8 hr after administration
Description: In order to evaluate the impact on the deuterium substituent in terms of pharmacokinetics, the blood concentrations of Example 35 and Comparative Example 2 in rats were measured and compared. Six male rats (Sprague-Dawley Rats) were obtained, acclimatized, and then distributed into two groups with three rats per test group. As feed, irradiated solid feed was allowed to be freely consumed, and, as water, tap water disinfected with an ultraviolet sterilizer and micro-filtration device was placed in a polycarbonate drinking bottle and allowed to be freely consumed. Rats were raised in an animal breeding area maintained at a temperature of 23±3° C., with a relative humidity of 50±20%, a ventilation frequency of 10 to 15 times/hr, for a lighting time of 12 hours (lights on at 8 a.m. to lights off at 8 p.m.), and with an illuminance of 150 to 300 Lux.
Blood samples were obtained from the jugular vein at 0.5, 1, 2, 5, and 8 hours after drug administration, respectively. Blood samples were centrifuged (2 to 8° C., 3,200 g, 10 minutes) to obtain plasma. The amount of administered compound into the plasma sample was quantified by using LC-MS/MS.

[3] = target: proton pump (H+/K+-ATPase) (Sus scrofa (Pig), UniProt P19156); experiment: Inhibitory activity on proton pump (H+/K+-ATPase) activity; type: biochemical; settings: porcine gastric mucosal microsomes, 5 mM KCl, pH 6.4
Description: The compounds indicated in the above examples were tested for their inhibitory activity on proton pump (H+/K+-ATPase) activity as follows by applying the method disclosed in the literature. According to the methods of Nobuyuki Takahashi and Yukinori Take [J Pharmacol Exp Ther. 2018 February; 364(2):275-286], the gastric mucosal microsome fraction was isolated from the porcine stomach. The stomach isolated from the pig was washed first with tap water, only the fundus was cut, and then washed (a second time) with cold PBS. The gastric mucosa was separated by scraping, homogenized with 250 mM sucrose solution, and centrifuged at 20,000 g at 4° C. for 30 minutes. Only the supernatant was centrifuged at 115,000 g at 4° C. for 30 minutes, and the precipitate was suspended in 250 mM sucrose solution, added to cover with 7% Ficoll solution, and centrifuged at 135,000 g at 4° C. for 60 minutes. The microsome fraction formed at the interface was recovered and suspended in 250 mM sucrose solution, and centrifuged at 135,000 g, 4° C. for 60 minutes, and the precipitate was dissolved in 0.9% NaCl. The isolated gastric mucosal microsome fraction was quantified by using the Bicinchoninic Acid (BCA) kit (Thermo).
60 μl of enzyme reaction solution (a test compound at a given concentration, […] of gastric mucosal microsomes, 3 mM of MgSO4, 5 mM of KCl, 40 mM of Tris-HCl pH 6.4, and 0.5 mM of adenosine triphosphate) was added to each well of a 96-well plate and reacted at 37° C. for 60 minutes, and 30 μl of 10% SIDS was added to stop the enzyme reaction. 200 μl of detection solution (in which 10% L-ascorbic acid with pH 5.0 was mixed with 35 mM of ammonium molybdate tetrahydrate/15 mM of zinc acetate with pH 5.0 at the ratio of 4:1) was added and reacted at 37° C. for 30 minutes, and the absorbance value was measured at 750 nm by using a microplate reader (MULTISKAN GO, Thermo). The inhibition rate of proton pump activity was expressed as I050, which is 50% inhibition of enzyme activity, by using GraphPad Prism 5. In Table 1 below, an I050 value of 100 nM or less is indicated by +++, an I050 value of 101 to 200 nM is indicated by ++, and an I050 value of above 200 nM is indicated by +.

[4] = tested on: human gastric cancer cells (AGS Cells); experiment: MTS assay, inhibition of proliferation of human gastric cancer cells (AGS Cells); type: cell-based; settings: Homo sapiens, 48 hours
Description: To examine the effect of inhibiting the proliferation of the compounds indicated in the examples of the present invention on human gastric cancer cells (AGS Cells), MTS Assay experiments were in vitro performed. AGS cells were cultured in a 5% CO2 incubator at 37° C. by using RPMI 1640 medium containing 1% penicillin-streptomycin and 10% fetal bovine serum. The cells in culture were separated with using 0.25% Trypsin-0.02% EDTA every 3 to 4 days and subcultured.
For the experiment, the cultured cells were treated with 0.25% Trypsin-0.02% EDTA solution, the suspended cells were centrifuged at 1,200 rpm for 5 minutes, the supernatant was discarded, a culture medium was added thereto, and a cell suspension was made with the culture medium. Using a hemocytometer, 10,000 cells per well were dispensed into 96-well plates and cultured. After 24 hours, when the cells attached to the plate, the culture medium was discarded, and the cells were treated with new culture media prepared by concentration (test concentrations: 500 μm, 250 μm, 125 μm, 63 μm, 31 μm, 16 μm, 8 μm, 4 μm, and 2 μm) and cultured in a CO2 incubator for 48 hours. After treating with an MTS solution, the cells were incubated in a CO2 incubator for 1 hour, and the absorbance was measured at 490 nm by using a microplate reader device. The cell proliferation inhibition rate was expressed as IC50, which is 50% inhibition of cell proliferation, using GraphPad Prism 5.
In Table 2 below, the IC50 value is indicated as “+++” for 0 to 50 μM, “++” for 51 to 100 μM, and “+” for 101 to 400 μM.

[5] = tested on: rats (Sprague-Dawley Rats); experiment: Acute oral toxicity in rats; type: in vivo; settings: female rats
Excerpt: An attempt was made to evaluate the acute toxicity of the compound of Example 7 on the fumarate form (Example 41). Twenty female rats (Sprague-Dawley Rats) were obtained, acclimatized, and distributed into a total of four groups, five rats per test group. As feed, irradiated solid feed was allowed to be freely consumed, and, as water, tap water disinfected with an ultraviolet sterilizer and micro-filtration device was placed in a polycarbonate drinking bottle and allowed to be freely consumed. Rats were raised in an animal breeding area maintained at a temperature of 23±3° C., with a relative humidity of 50±20%, a ventilation frequency of 10 to 15 times/hr, for a lighting time of 12 hours (lights on at 8 a.m. to lights off at 8 p.m.), and with an illuminance of 150 to 300 Lux. As the administration, oral administration, the clinically planned route, was selected for evaluation, and, as the administration dose, the highest dose was set at 600 mg/kg, referring to the results of vonoprazan.

[6] = read-out: Proton pump inhibitory activity (IC50)
[7] = read-out: Proton pump inhibitory activity (IC50, nM), class symbol
[8] = read-out: Proliferation inhibitory effect of gastric cancer cells (IC50)
[9] = read-out: Proliferation inhibitory effect of gastric cancer cells (IC50, μM), class symbol

proton pump (H+/K+-ATPase), sequence (P19156 2-1034): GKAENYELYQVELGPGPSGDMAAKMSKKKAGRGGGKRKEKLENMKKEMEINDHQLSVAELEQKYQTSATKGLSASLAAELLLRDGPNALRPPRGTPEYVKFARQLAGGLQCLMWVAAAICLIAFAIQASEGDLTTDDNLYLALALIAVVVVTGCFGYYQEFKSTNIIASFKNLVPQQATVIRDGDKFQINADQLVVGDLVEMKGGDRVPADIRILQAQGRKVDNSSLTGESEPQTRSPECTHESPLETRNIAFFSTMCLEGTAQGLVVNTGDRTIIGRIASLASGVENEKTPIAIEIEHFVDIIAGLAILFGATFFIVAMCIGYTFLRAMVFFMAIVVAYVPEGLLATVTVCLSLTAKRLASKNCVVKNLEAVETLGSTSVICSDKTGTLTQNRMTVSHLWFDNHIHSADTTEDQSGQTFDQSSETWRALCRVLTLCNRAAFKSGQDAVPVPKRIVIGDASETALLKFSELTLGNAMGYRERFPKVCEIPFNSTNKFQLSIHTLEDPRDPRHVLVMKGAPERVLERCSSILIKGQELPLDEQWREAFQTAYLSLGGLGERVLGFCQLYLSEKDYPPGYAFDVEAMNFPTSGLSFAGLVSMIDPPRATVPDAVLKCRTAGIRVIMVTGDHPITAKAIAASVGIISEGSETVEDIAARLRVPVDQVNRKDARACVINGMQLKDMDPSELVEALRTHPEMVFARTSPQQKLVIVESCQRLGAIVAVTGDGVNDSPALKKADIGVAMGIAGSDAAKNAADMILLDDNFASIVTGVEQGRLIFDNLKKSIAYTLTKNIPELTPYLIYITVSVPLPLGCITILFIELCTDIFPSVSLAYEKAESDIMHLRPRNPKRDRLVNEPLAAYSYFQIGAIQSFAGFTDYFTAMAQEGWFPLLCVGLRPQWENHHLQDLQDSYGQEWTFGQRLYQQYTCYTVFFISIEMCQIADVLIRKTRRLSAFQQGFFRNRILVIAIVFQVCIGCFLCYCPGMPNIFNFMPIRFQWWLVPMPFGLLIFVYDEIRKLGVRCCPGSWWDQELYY
proton pump (H+/K+-ATPase), sequence (P18434 whole entry partner): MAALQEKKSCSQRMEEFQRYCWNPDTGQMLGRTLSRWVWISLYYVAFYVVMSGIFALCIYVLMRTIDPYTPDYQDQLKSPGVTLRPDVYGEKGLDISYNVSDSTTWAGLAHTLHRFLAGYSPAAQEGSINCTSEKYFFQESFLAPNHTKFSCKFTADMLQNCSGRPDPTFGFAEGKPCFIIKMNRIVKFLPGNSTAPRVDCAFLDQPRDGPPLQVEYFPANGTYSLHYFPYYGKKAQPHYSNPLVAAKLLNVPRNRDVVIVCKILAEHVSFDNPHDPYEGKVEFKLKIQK

SMILES | IC50 [3, 6] [nM] | IC50 [3, 7] [nM] | IC50 [4, 8] [µM] | IC50 [4, 9] [µM] | further results
CNCc1cc(-c2ccccc2F)n(S(=O)(=O)c2ccc(F)cc2)c1 [Comparative Example 1, reference compound] |  |  |  |  | storage stability, Results ([1]; stored at −2 to 8° C. for 3 months): Unstable; storage stability ([1]; 1st week): 90.61; storage stability ([1]; 2nd week): 81.40; storage stability ([1]; 3 months): 53.8; storage stability ([1]; 3rd week): 76.47; storage stability ([1]; 4th week): 70.39; storage stability ([1]; Initial): 97.99
CNCc1cn(S(=O)(=O)c2cccnc2)c(-c2ccc(F)cc2F)c1OC [Comparative Example 2, reference compound] |  |  |  |  | concentration at 0.5 h [2]: 59.7 ng/mL; concentration at 1 h [2]: 116 ng/mL; concentration at 2 h [2]: 83.8 ng/mL; concentration at 5 h [2]: 12.8 ng/mL; concentration at 8 h [2]: 5.1 ng/mL
[2H]C([2H])([2H])NCc1cc(-c2ccccc2F)n(S(=O)(=O)c2ccc(OC)cc2)c1 [Example 3, N-((5-(2-fluorophenyl)-1-((4-methoxyphenyl)sulfonyl)-1H-pyrrol-3-yl)methyl)methan-d3-amine] | 48 | ≤ 100 | 3.5 | < 50 | 
[2H]C([2H])([2H])NCc1cc(-c2ccccc2F)n(S(=O)(=O)c2ccc(C#N)cc2)c1 [Example 4, 4-((2-(2-fluorophenyl)-4-(((methyl-d3)amino)methyl)-1H-pyrrol-1-yl)sulfonyl)benzonitrile] | 90 | ≤ 100 | 32.7 | < 50 | 
[2H]C([2H])([2H])NCc1cc(-c2ccccc2F)n(S(=O)(=O)c2ccc(OC(F)(F)F)cc2)c1 [Example 8, N-((5-(2-fluorophenyl)-1-((4-(trifluoromethoxy)phenyl)sulfonyl)-1H-pyrrol-3-yl)methyl)methan-d3-amine] | 51 | ≤ 100 | 12.2 | < 50 | 
[2H]C([2H])([2H])NCc1cn(S(=O)(=O)c2cccnc2)c(-c2ccc(F)cc2F)c1OC [Example 35, N-((5-(2,4-difluorophenyl)-4-methoxy-1-(pyridin-3-ylsulfonyl)-1H-pyrrol-3-yl)methyl)methan-d3-amine] |  |  |  |  | concentration at 0.5 h [2]: 302 ng/mL; concentration at 1 h [2]: 254 ng/mL; concentration at 2 h [2]: 199 ng/mL; concentration at 5 h [2]: 22.6 ng/mL; concentration at 8 h [2]: 4.8 ng/mL; blood concentration level higher as compared to Comparative Example 2 ([2]; 0.5 hours after administration): 5 times; blood concentration level higher as compared to Comparative Example 2 ([2]; after 1 hour): at least 2 times; blood concentration level higher as compared to Comparative Example 2 ([2]; after 2 hours): at least 2 times
O=C(O)/C=C/C(=O)O.[2H]C([2H])([2H])NCc1cc(-c2ccccc2F)n(S(=O)(=O)c2ccc(F)cc2)c1 [Example 41, N-((5-(2-fluorophenyl)-1-((4-fluorophenyl)sulfonyl)-1H-pyrrol-3-yl)methyl)methane-d3-amine Fumarate] |  |  |  |  | Survival rate (%) ([5]; single oral dose 50 mg/kg): 100%; Survival rate (%) ([5]; single oral dose 200 mg/kg): 100%; Survival rate (%) ([5]; single oral dose 400 mg/kg): 100%; Survival rate (%) ([5]; single oral dose 600 mg/kg): 0%

Second part, led by results:

IC50 [3, 6] [nM] | IC50 [3, 7] [nM] | IC50 [4, 8] [µM] | IC50 [4, 9] [µM] | SMILES | further results
68 | ≤ 100 | 17.5 | < 50 | [2H]C([2H])([2H])NCc1cc(-c2ccccc2F)n(S(=O)(=O)c2ccc(C)cc2)c1 [Example 2, N-((5-(2-fluorophenyl)-1-tosyl-1H-pyrrol-3-yl)methyl)methan-d3-amine] | 
26 | ≤ 100 | 21.7 | < 50 | [2H]C([2H])([2H])NCc1cc(-c2ccccc2F)n(S(=O)(=O)c2ccc(Cl)cc2)c1 [Example 6, N-((1-((4-chlorophenyl)sulfonyl)-5-(2-fluorophenyl)-1H-pyrrol-3-yl)methyl)methan-d3-amine] | 
 |  | 24.8 | < 50 | [2H]C([2H])([2H])NCc1cc(-c2ccc(F)cc2)n(S(=O)(=O)c2ccc(Br)cc2)c1 [Example 25, N-((1-((4-bromophenyl)sulfonyl)-5-(4-fluorophenyl)-1H-pyrrol-3-yl)methyl)methan-d3-amine] | 
 |  | 13.2 | < 50 | [2H]C([2H])([2H])NCc1cc(-c2ccc(F)cc2)n(S(=O)(=O)c2ccc(Cl)cc2)c1 [Example 26, N-((1-((4-chlorophenyl)sulfonyl)-5-(4-fluorophenyl)-1H-pyrrol-3-yl)methyl)methan-d3-amine] | 
